Test results taken from US5112810A, “Method for treating multiple sclerosis” (Mitsui Pharmaceuticals, Inc., priority 1981, dated 1992).
Where a SMILES comes first, the peptide text is derived from it. [ ]: non-standard residue; d: D form. pGlu = O=C1CC[C@@H](C(=O)O)N1

System: male Hartley guinea pig
Test: Toxicity (Experiment 3)
Assay type: in vivo
Details: FTS 100 mg/kg
Protocol: Toxicity was studied by treating a male Hartley guinea pig with FTS at a dose of 100 mg/kg and observing the animal for one-week. This animal was still alive at the end of one-week observation period.

C[C@H](NC(=O)[C@@H]1CCC(=O)N1)C(=O)N[C@@H](CCCCN)C(=O)N[C@@H](CO)C(=O)N[C@@H](CCC(N)=O)C(=O)NCC(=O)NCC(=O)N[C@@H](CO)C(=O)N[C@@H](CC(N)=O)C(=O)O [FTS, p-Glu-Ala-Lys-Ser-Gln-Gly-Gly-Ser-Asn-Oh] ([pGlu]AKSQGGSN-OH)
Toxicity: survival at the end of one-week observation: still alive
